These results are taken from article PMC9234961 (Journal of Medicinal Chemistry, 2022).

Some results are limits rather than exact numbers.

What all share (assay): SAFETYScan Ion Channel, Blocker
Holding throughout (format): cell-based

Data set [1] deals with T1, HTR3A (Homo sapiens, UniProt P46098).
T1 sequence (P46098 24-478): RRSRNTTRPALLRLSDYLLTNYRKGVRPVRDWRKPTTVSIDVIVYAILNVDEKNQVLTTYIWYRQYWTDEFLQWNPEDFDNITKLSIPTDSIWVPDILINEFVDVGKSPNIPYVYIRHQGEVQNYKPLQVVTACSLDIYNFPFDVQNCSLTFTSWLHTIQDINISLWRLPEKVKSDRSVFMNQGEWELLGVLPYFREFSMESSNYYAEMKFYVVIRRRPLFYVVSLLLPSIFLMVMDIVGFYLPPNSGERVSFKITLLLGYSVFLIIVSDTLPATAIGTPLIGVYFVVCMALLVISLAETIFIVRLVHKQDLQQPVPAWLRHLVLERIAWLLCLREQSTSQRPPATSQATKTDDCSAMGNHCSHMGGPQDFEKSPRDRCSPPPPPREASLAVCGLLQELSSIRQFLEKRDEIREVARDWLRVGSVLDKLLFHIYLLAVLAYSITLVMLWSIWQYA
The source says:
(§1) Supplement jm1c02175_si_002.xlsx, sheet "SAFETYScan" | column: RC50 (uM); Max Response

Data set [2] concerns the target GABAA (Homo sapiens, UniProt P14867+P18507+P47870). The conditions noted are these: read-out: Max Response.
Excerpt: as §1

The target in data set [3] is KvLQT1/minK (Homo sapiens, UniProt P51787).
Excerpt: as §1

Data set [4] addresses CAV1.2 (Homo sapiens, UniProt Q13936).
Excerpt: as §1

The target in data set [5] is NMDAR (1A/2B) (Homo sapiens, UniProt Q05586+Q13224).
Sequence of NMDAR (1A/2B) (Q13224 27-1484, other chains not shown): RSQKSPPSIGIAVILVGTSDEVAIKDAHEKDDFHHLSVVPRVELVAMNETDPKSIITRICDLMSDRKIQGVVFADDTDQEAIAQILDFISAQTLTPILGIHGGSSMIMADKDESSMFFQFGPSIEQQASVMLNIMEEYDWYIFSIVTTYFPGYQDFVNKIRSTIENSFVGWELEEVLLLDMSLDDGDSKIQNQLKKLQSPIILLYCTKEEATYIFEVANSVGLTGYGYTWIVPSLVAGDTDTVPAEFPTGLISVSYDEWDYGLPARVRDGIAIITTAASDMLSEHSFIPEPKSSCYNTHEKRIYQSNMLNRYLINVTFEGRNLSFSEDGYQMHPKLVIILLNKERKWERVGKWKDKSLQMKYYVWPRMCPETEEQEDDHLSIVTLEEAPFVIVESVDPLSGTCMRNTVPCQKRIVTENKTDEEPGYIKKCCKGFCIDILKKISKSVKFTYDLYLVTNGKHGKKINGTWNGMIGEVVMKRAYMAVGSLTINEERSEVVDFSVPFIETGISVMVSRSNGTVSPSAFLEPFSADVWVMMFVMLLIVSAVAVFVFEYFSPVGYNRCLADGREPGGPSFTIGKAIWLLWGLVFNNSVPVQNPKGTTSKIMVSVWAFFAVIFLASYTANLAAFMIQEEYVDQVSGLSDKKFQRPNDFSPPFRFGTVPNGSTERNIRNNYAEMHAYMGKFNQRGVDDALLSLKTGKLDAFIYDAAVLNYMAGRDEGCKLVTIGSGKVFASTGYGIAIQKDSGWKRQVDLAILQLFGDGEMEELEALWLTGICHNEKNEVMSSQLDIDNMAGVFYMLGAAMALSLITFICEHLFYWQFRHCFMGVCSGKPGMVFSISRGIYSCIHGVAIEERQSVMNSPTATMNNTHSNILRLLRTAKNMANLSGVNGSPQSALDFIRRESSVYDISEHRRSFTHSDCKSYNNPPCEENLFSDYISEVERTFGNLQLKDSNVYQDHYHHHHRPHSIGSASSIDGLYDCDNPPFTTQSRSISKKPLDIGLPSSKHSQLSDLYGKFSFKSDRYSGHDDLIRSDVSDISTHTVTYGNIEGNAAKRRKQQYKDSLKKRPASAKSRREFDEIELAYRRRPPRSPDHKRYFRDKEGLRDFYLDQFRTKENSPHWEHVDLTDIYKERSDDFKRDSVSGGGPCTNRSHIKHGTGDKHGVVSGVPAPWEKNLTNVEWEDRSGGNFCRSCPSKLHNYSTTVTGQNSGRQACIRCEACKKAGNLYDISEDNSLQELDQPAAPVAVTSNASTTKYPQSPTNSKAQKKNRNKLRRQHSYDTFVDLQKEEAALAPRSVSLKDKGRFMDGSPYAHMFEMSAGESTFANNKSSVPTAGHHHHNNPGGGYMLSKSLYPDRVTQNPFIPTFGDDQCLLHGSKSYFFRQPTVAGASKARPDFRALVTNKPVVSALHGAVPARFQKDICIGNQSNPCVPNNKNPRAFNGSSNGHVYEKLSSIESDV
Excerpt: as §1

Data set [6] has as its target NAV1.5 (Homo sapiens, UniProt Q14524).
Excerpt: as §1

Data set [7] has as its target hERG (Homo sapiens, UniProt Q12809).
Excerpt: as §1

Data set [8] addresses nAChR(a4/b2) (Homo sapiens, UniProt P17787+P43681).
Excerpt: as §1

Sequence of nAChR(a4/b2) (P43681 29-627 limits assumed): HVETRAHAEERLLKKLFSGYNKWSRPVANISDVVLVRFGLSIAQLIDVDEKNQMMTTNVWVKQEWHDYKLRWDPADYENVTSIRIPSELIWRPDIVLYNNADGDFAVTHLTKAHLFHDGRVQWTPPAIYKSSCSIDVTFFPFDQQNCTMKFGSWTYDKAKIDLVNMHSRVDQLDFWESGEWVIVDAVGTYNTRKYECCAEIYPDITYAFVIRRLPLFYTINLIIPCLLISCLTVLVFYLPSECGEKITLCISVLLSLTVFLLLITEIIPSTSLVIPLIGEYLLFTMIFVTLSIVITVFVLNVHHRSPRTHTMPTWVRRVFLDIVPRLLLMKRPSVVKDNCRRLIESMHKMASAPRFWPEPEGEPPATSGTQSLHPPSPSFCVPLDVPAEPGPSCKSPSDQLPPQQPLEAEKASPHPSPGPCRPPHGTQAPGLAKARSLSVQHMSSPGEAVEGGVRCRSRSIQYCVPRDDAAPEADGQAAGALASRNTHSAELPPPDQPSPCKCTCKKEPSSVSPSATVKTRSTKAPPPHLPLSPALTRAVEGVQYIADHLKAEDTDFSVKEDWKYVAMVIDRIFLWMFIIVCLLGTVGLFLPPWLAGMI
Sequence of nAChR(a4/b2) (P17787 26-502): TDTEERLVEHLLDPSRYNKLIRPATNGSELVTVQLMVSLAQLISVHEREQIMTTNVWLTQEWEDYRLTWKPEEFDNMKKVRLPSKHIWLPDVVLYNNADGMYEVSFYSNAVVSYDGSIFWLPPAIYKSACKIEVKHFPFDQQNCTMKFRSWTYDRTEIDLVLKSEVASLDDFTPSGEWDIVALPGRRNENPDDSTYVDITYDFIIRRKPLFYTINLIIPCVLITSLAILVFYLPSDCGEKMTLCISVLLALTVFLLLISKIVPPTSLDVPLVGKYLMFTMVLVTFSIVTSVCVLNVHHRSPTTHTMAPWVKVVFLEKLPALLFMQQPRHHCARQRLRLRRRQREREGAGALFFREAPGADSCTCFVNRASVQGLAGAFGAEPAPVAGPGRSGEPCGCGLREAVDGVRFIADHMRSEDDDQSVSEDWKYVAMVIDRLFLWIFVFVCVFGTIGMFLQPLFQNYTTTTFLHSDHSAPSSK
Sequence of NAV1.5 (Q14524 whole entry): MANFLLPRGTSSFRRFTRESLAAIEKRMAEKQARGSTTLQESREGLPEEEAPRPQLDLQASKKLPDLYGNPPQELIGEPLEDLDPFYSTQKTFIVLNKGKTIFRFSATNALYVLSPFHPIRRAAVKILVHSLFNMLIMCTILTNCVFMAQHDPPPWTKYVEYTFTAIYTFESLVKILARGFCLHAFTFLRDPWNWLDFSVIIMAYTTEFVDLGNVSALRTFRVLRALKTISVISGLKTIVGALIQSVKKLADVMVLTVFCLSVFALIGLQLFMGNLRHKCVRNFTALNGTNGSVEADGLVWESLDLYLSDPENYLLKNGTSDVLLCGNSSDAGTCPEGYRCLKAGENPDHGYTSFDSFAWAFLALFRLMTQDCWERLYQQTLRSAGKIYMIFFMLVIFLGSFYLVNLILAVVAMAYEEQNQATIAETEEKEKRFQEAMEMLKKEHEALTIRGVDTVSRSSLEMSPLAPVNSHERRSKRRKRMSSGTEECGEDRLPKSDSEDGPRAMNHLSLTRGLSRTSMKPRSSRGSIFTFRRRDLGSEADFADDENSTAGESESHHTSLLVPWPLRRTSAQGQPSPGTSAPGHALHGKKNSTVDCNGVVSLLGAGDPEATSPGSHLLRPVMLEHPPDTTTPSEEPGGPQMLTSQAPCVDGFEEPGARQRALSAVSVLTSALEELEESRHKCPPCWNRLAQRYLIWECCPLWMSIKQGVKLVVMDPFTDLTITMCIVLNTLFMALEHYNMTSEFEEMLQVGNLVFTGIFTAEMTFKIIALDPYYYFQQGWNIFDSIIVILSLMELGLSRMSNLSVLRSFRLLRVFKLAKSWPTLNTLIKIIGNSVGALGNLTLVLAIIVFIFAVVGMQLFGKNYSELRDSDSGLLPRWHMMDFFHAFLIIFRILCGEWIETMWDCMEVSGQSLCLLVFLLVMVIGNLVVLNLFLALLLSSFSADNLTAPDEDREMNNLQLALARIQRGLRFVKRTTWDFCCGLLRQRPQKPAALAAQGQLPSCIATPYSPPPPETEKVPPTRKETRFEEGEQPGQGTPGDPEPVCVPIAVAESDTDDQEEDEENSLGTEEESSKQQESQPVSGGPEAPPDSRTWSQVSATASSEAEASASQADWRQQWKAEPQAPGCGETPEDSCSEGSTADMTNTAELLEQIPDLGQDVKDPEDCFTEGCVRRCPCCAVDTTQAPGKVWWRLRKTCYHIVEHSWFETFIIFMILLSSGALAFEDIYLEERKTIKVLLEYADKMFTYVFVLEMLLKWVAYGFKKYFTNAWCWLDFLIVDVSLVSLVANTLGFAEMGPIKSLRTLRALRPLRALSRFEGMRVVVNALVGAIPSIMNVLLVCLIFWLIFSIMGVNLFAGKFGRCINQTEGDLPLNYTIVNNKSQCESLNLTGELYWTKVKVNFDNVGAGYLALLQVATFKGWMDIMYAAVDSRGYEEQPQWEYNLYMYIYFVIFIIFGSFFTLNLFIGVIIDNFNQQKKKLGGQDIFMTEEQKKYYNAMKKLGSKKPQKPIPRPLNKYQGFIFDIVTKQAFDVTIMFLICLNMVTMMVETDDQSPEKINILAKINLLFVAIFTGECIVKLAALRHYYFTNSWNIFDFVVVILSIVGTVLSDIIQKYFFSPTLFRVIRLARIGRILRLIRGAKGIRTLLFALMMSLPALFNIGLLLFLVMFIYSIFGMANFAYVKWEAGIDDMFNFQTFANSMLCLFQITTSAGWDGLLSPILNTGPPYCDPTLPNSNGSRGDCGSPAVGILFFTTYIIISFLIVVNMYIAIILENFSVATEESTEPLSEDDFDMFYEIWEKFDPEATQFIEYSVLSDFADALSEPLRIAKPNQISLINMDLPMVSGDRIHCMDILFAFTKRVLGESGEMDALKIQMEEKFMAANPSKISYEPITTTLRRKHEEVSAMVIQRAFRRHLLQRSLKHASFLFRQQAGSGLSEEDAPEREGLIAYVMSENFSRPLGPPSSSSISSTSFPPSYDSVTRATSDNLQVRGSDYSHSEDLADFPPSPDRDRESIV

By IC50 is commonly meant the midpoint of a concentration-inhibition curve. In the case of `C[C@H]1C[C@@H](O)CN(c2ncc(Cl)c(Nc3ccc4c(c3)c3c(c(=O)n4C)OCC(F)(F)[C@H](C4CC4)N3)n2)C1` [12a CCT373566, (S)-10-((5-Chloro-2-((3R,5S)-3-hydroxy-5-methylpiperidin-1-yl)pyrimidin-4-yl)amino)-2-cyclopropyl-3,3-difluoro-7-methyl-1,2,3,4-tetrahydro-[1,4]oxazepino[2,3-c]quinolin-6(7H)-one], the Emax came to 15% in data set [1] (read-out: Max Response); 1.51% in data set [2]; 13.1% in data set [3] (read-out: Max Response); 0% in data set [4] (read-out: Max Response); 0% in data set [5] (read-out: Max Response); 1.35% in data set [6] (read-out: Max Response). For the same molecule, the Emax worked out at 93% in data set [7] (human, read-out: Max Response) and 7.49% in data set [8] (read-out: Max Response). For the same molecule, the IC50 in data set [1] (read-out: RC50 (IC50)) is over 10 µM; in data set [3] (read-out: RC50 (IC50)), over 10 µM; in data set [4] (read-out: RC50 (IC50)) it was over 10 µM; in data set [5] (read-out: RC50 (IC50)), over 10 µM; in data set [6] (read-out: RC50 (IC50)), over 10 µM; in data set [7] (read-out: RC50 (IC50)), 1.44 µM. The IC50 in data set [8] (read-out: RC50 (IC50)) is over 10 µM.
